According to patent US11802107B2, “Compounds and methods of use” (Signum Biosciences, Inc., priority 2017, dated 2023):
Converted amounts (≈) assume the structure as drawn.

How the values were obtained:
IL-31 = assay: Anti-CD3/CD28+IL-4-induced IL-31 on PBMCs; assay type: cell-based; details: Homo sapiens, PBMC, anti-CD3/CD28 beads + 50 ng/mL IL-4, 48 hours, ELISA, read-out: TCR/IL-4-PBMCs IL-31 IC50
Procedure: Cryopreserved human Peripheral Blood Mononuclear cells (PBMCs) from healthy adult donors were obtained from Zen Bio, Inc (Cat No. SER-PBMC-F). Cells were cultured in 96-well plates with lymphocyte media (Cat No. LYMPH-1) and were pre-treated with test materials (≤100 μM) for 2 hours and later co-treated with test materials and anti-CD3/CD28 beads (Thermo-Fisher; Cat No. 11131D) and 50 ng/mL recombinant human IL-4 (R&D Systems® #204-IL) for 48 hours at 37° C. and 5% CO2. After incubation, cell media supernatants were harvested and used to measure cytokine levels (IL-22, IL-31) using ELISA kits (R&D Systems® #DY782, #DY2824). Results were represented as percent of inhibition relative to untreated and anti-CD3/CD28+IL-4 only treated cells. IC50 values were determined by non-linear regression analysis using the four-parameter logistic equation.

P. acnes (ATCC 6919) = assay: Minimal inhibitory concentration (MIC) against P. acnes; assay type: cell-based, Propionibacterium acnes; details: Cutibacterium acnes, ATCC6919, 72 h, P. acnes ATCC 6919, 10^6 CFU/mL, read-out: MIC
Procedure: To determine minimal inhibitory concentration (MIC), reagents were dissolved in vehicle (5% v/v) and then added to bacteria suspension. P. acnes (ATCC® 6919TM) at 10^6 CFU/mL was incubated with test materials at the concentrations of two-fold serial dilution (0.25-500 μg/mL) and incubated for 72 hours (P. acnes).

IL-1b = assay: P. acnes-induced IL-1b protein on human PBMCs (ELISA); assay type: cell-based; details: PBMC, PBMCs + live P. acnes 1:1, test material 30 PM, 24 hours
Procedure: Cryopreserved human Peripheral Blood Mononuclear cells (PBMCs) from healthy adult donors were obtained from Zen Bio, Inc (Cat No. SER-PBMC-F). Cells were cultured in 12-well plates with lymphocyte media (Cat No. LYMPH-1) and incubated with test materials ([…]) and live P. acnes (ATCC® 6919TM) at 1:1 PBMC: P. acnes bacteria ratio for 24 hours at 37° C. and 5% CO2. After incubation, cell media supernatants were harvested and used to measure pro-inflammatory cytokine levels (IL-8, TNF-α, IL-1b, IL-17) using ELISA kits (BD Biosciences® #557966, #555212, #555244; R&D Systems® #DY317). Total RNA was extracted from cells using the RNAqueous® kit (Ambion®; Cat No. 1912) and cDNA was obtained using the High Capacity RNA-to-cDNA kit (Applied Biosystems®; Cat No. 4387406). Quantitative PCR (qPCR) was performed using the TaqMan® Fast Advanced Master Mix (Applied Biosystems®; Cat No. 4444556) and specific TaqMan®-probes human gene primers CXCL8 (IL-8), IL1B (IL-1b), TNF (TNF-α), IL17A (IL-17A) and GAPDH to calculate the relative gene fold expression change per treatment. Gene expression analysis was performed using the comparative Ct method (also known as the 2-[delta][delta]Ct) approach by comparing the Ct values of P. acnes-only treated cells with the untreated samples and normalized to GAPDH gene expression as endogenous housekeeping gene.

DEFB103 (hBD3) = assay: NHEK antimicrobial peptide gene expression, hBD3; assay type: cell-based, human; details: 10 μM, 24 hours, qPCR, normalized to GAPDH
Procedure: (§1) Normal human epidermal keratinocytes (NHEKs) from neonatal donors were obtained from Thermo-Fisher (Cat No. C-001-5C). Cells were cultured in 6-well plates for 24 hours before treatments with EpiLife media (Cat No. MEPI500CA) supplemented with keratinocytes growth supplement (Cat No. 50015). On Day 2, media was removed and incubated with test materials (10 μM) for 24 hours at 37° C. and 5% CO2. On Day 3, total RNA was extracted from cells using the RNAqueous® kit (Ambion®; Cat No. 1912) and cDNA was obtained using the High Capacity RNA-to-cDNA kit (Applied Biosystems®; Cat No. 4387406). Quantitative PCR (qPCR) was performed using the TaqMan® Fast Advanced Master Mix (Applied Biosystems®; Cat No. 4444556) and specific TaqMan®-probes human gene primers DEFB4B (hBD2), DEFB103 (hBD3), HCAP18 and GAPDH to calculate the relative gene fold expression change per treatment. Gene expression analysis was performed using the comparative Ct method (also known as the 2-[delta][delta]Ct) approach by comparing the Ct values of the treated samples with the untreated samples and normalized to GAPDH gene expression as endogenous housekeeping gene. Results were represented as fold-expression/untreated cells.

DEFB4B (hBD2) = assay: NHEK antimicrobial peptide gene expression, hBD2; assay type: cell-based, human; details: 10 μM, 24 hours, qPCR, normalized to GAPDH
Procedure: as §1

IL-8 = assay: Peptidoglycan (PGN)-induced IL-8 on NHEKs; assay type: cell-based, human; details: for IC50: Homo sapiens, NHEK, PGN 10 μg/mL, 24 hours, ELISA, read-out: PGN-NHEK 1L-8 Protein IC50; for PGN-induced IL-8 production: cultured human keratinocytes exposed to peptidoglycan (PGN)
Procedure: Normal human epidermal keratinocytes (NHEKs) from neonatal donors were obtained from Thermo-Fisher (Cat No. C-001-5C). Cells were cultured in 96-well plates for 24 hours with EpiLife media (Cat No. MEPI500CA) supplemented with keratinocytes growth supplement (Cat No. S0015). On Day 2, media was removed and replaced with supplement-depleted medium for 24 hours. On Day 3, media was removed and cells were pre-treated with test materials (≤1 μM) for 2 hours and later co-treated with test materials and PGN (Sigma Aldrich, Cat No. 77140) at 10 μg/mL and incubated for 24 hours at 37° C. and 5% CO2. PGN is a TLR-2 agonist. After incubation, cell media supernatants were harvested and used to measure pro-inflammatory cytokine levels (IL-8) using ELISA kit (BD Biosciences® #555244). Results were represented as percent of inhibition relative to untreated and PGN-only treated cells. IC50 values were determined by non-linear regression analysis using the four-parameter logistic equation.

Row | IC50 (IL-31) [nM] | MIC (P. acnes (ATCC 6919)) [mg/L] | IC50 (IL-8) [nM] | SMILES | inhibition at 30 pM (IL-1b) [%] | hBD3 gene expression (DEFB103 (hBD3)) | hBD2 gene expression (DEFB4B (hBD2)) | PGN-induced IL-8 production (IL-8)
1 | 0.008 | – | – | N#Cc1ccc(Oc2ccc3c(c2)COB3O)cc1 [AN2728, reference compound] | – | – | – | –
2 | – | 10 (≈ 20 µM) | – | C/C(=C\CSCC(NC(=O)NCC(=O)O)C(=O)O)CCCC(C)CCCC(C)CCCC(C)C (centres unmarked) [A] | 38 | – | – | –
3 | – | 6 (≈ 11.7 µM) | 250 | C/C(=C\CSC[C@H](NC(=O)N(C)CC(=O)O)C(=O)O)CCCC(C)CCCC(C)CCCC(C)C (stereo partly drawn) [Compound C, (2R)-2-{[(carboxymethyl)(methyl)carbamoyl]amino}-3-{[(2E)-3,7,11,15-tetramethylhexadec-2-en-1-yl]sulfanyl}propanoic acid] | 36 | 9.5 Fold-expression/untreated cells | 0.7 Fold-expression/untreated cells | –
4 | 1 | 5 (≈ 9.25 µM) | 250 | C/C(=C\CSC[C@H](NC(=O)N1CCC[C@H]1C(=O)O)C(=O)O)CCCC(C)CCCC(C)CCCC(C)C (some centres unmarked) [Compound E] | 82 | 2.9 Fold-expression/untreated cells | 1.1 Fold-expression/untreated cells | inhibit IL-8 production
5 | – | 4 (≈ 7.16 µM) | 50 | C/C(=C\CSCC(NC(=O)N(CC(=O)O)CC(=O)O)C(=O)O)CCCC(C)CCCC(C)CCCC(C)C (centres unmarked) [Compound G] | 91 | 4.7 Fold-expression/untreated cells | 2.5 Fold-expression/untreated cells | inhibit IL-8 production
6 | 1 | 22 (≈ 42.7 µM) | – | C/C(=C\CSC[C@H](NC(=O)COCC(=O)O)C(=O)O)CCCC(C)CCCC(C)CCCC(C)C (some centres unmarked) [Compound T] | – | – | – | –
